According to ChEMBL document CHEMBL4507302, “Data for DCP probe TP-020” (2021):

Tests used:
[1] = target: Dual specificity protein kinase CLK4 (Homo sapiens) (UniProt Q9HAZ1); conditions: Compound concentration 1000.0 nM
[2] = target: Serine/threonine-protein kinase ULK2 (Homo sapiens) (UniProt Q8IYT8); conditions: Compound concentration 1000.0 nM
[3] = target: Aurora kinase C (Homo sapiens) (UniProt Q9UQB9); conditions: Compound concentration 1000.0 nM
[4] = target: Receptor tyrosine-protein kinase erbB-2 (Homo sapiens) (UniProt P04626); conditions: Compound concentration 1000.0 nM
[5] = target: Protein kinase C epsilon type (Homo sapiens) (UniProt Q02156); conditions: Compound concentration 1000.0 nM
[6] = tested on: Receptor-type tyrosine-protein kinase FLT3 (Homo sapiens), P36888 [N841I]; conditions: Compound concentration 1000.0 nM
[7] = target: Mast/stem cell growth factor receptor Kit (Homo sapiens) (UniProt P10721); conditions: Compound concentration 1000.0 nM
[8] = tested on: Mast/stem cell growth factor receptor Kit (Homo sapiens), P10721 [V559D,V654A]; conditions: Compound concentration 1000.0 nM
[9] = target: BMP-2-inducible protein kinase (Homo sapiens) (UniProt Q9NSY1); conditions: Compound concentration 1000.0 nM
[10] = target: Serine/threonine-protein kinase PknB (Mycobacterium tuberculosis) (UniProt P9WI81); conditions: Compound concentration 1000.0 nM
[11] = tested on: Mast/stem cell growth factor receptor Kit (Homo sapiens), P10721 [D816H]; conditions: Compound concentration 1000.0 nM
[12] = target: Membrane-associated tyrosine- and threonine-specific cdc2-inhibitory kinase (Homo sapiens) (UniProt Q99640); conditions: Compound concentration 1000.0 nM
[13] = target: Homeodomain-interacting protein kinase 3 (Homo sapiens) (UniProt Q9H422); conditions: Compound concentration 1000.0 nM
[14] = target: Serine/threonine-protein kinase 3 (Homo sapiens) (UniProt Q13188); conditions: Compound concentration 1000.0 nM
[15] = tested on: Phosphatidylinositol 4,5-bisphosphate 3-kinase catalytic subunit alpha isoform (Homo sapiens), P42336 [H1047L]; conditions: Compound concentration 1000.0 nM
[16] = target: Insulin-like growth factor 1 receptor (Homo sapiens) (UniProt P08069); conditions: Compound concentration 1000.0 nM
[17] = target: Serine/threonine-protein kinase MRCK gamma (Homo sapiens) (UniProt Q6DT37); conditions: Compound concentration 1000.0 nM
[18] = target: Angiopoietin-1 receptor (Homo sapiens) (UniProt Q02763); conditions: Compound concentration 1000.0 nM
[19] = target: Serine/threonine-protein kinase PLK1 (Homo sapiens) (UniProt P53350); conditions: Compound concentration 1000.0 nM
[20] = target: cAMP-dependent protein kinase catalytic subunit beta (Homo sapiens) (UniProt P22694); conditions: Compound concentration 1000.0 nM
[21] = target: Leucine-rich repeat serine/threonine-protein kinase 2 (Homo sapiens) (UniProt Q5S007); conditions: Compound concentration 1000.0 nM
[22] = target: Protein kinase C eta type (Homo sapiens) (UniProt P24723); conditions: Compound concentration 1000.0 nM
[23] = target: Serine/threonine-protein kinase LATS2 (Homo sapiens) (UniProt Q9NRM7); conditions: Compound concentration 1000.0 nM
[24] = target: NT-3 growth factor receptor (Homo sapiens) (UniProt Q16288); conditions: Compound concentration 1000.0 nM
[25] = target: Mitogen-activated protein kinase 6 (Homo sapiens) (UniProt Q16659); conditions: Compound concentration 1000.0 nM
[26] = target: Calcium/calmodulin-dependent protein kinase type 1G (Homo sapiens) (UniProt Q96NX5); conditions: Compound concentration 1000.0 nM
[27] = target: Non-receptor tyrosine-protein kinase TNK1 (Homo sapiens) (UniProt Q13470); conditions: Compound concentration 1000.0 nM
[28] = target: Misshapen-like kinase 1 (Homo sapiens) (UniProt Q8N4C8); conditions: Compound concentration 1000.0 nM
[29] = target: Mitogen-activated protein kinase kinase kinase kinase 1 (Homo sapiens) (UniProt Q92918); conditions: Compound concentration 1000.0 nM
[30] = target: Alpha-2B adrenergic receptor (Homo sapiens) (UniProt P18089); conditions: Compound concentration 10.0 uM
[31] = target: Ephrin type-A receptor 1 (Homo sapiens) (UniProt P21709); conditions: Compound concentration 1000.0 nM
[32] = tested on: Tyrosine-protein kinase ABL1 (Homo sapiens), P00519 [Q252H]; conditions: Compound concentration 1000.0 nM
[33] = target: Serine/threonine-protein kinase Chk2 (Homo sapiens) (UniProt O96017); conditions: Compound concentration 1000.0 nM
[34] = target: Microtubule-associated serine/threonine-protein kinase 1 (Homo sapiens) (UniProt Q9Y2H9); conditions: Compound concentration 1000.0 nM
[35] = target: Cyclin-dependent kinase 17 (Homo sapiens) (UniProt Q00537); conditions: Compound concentration 1000.0 nM
[36] = tested on: Phosphatidylinositol 4,5-bisphosphate 3-kinase catalytic subunit alpha isoform (Homo sapiens), P42336 [M1043I]; conditions: Compound concentration 1000.0 nM
[37] = target: Activin receptor type-1 (Homo sapiens) (UniProt Q04771); conditions: Compound concentration 1000.0 nM
[38] = target: Tyrosine-protein kinase JAK1 (Homo sapiens) (UniProt P23458); conditions: Compound concentration 1000.0 nM
[39] = target: Death-associated protein kinase 1 (Homo sapiens) (UniProt P53355); conditions: Compound concentration 1000.0 nM
[40] = target: Serine/threonine-protein kinase TAO3 (Homo sapiens) (UniProt Q9H2K8); conditions: Compound concentration 1000.0 nM
[41] = tested on: Hepatocyte growth factor receptor (Homo sapiens), P08581 [M1250T]; conditions: Compound concentration 1000.0 nM
[42] = target: Ribosomal protein S6 kinase alpha-3 (Homo sapiens) (UniProt P51812); conditions: Compound concentration 1000.0 nM
[43] = target: Tyrosine-protein kinase Lyn (Homo sapiens) (UniProt P07948); conditions: Compound concentration 1000.0 nM
[44] = target: Interleukin-1 receptor-associated kinase 4 (Homo sapiens) (UniProt Q9NWZ3); conditions: Compound concentration 1000.0 nM
[45] = target: Tyrosine-protein kinase HCK (Homo sapiens) (UniProt P08631); conditions: Compound concentration 1000.0 nM

Chain of Misshapen-like kinase 1 (Homo sapiens) (Q8N4C8 whole entry, looked up): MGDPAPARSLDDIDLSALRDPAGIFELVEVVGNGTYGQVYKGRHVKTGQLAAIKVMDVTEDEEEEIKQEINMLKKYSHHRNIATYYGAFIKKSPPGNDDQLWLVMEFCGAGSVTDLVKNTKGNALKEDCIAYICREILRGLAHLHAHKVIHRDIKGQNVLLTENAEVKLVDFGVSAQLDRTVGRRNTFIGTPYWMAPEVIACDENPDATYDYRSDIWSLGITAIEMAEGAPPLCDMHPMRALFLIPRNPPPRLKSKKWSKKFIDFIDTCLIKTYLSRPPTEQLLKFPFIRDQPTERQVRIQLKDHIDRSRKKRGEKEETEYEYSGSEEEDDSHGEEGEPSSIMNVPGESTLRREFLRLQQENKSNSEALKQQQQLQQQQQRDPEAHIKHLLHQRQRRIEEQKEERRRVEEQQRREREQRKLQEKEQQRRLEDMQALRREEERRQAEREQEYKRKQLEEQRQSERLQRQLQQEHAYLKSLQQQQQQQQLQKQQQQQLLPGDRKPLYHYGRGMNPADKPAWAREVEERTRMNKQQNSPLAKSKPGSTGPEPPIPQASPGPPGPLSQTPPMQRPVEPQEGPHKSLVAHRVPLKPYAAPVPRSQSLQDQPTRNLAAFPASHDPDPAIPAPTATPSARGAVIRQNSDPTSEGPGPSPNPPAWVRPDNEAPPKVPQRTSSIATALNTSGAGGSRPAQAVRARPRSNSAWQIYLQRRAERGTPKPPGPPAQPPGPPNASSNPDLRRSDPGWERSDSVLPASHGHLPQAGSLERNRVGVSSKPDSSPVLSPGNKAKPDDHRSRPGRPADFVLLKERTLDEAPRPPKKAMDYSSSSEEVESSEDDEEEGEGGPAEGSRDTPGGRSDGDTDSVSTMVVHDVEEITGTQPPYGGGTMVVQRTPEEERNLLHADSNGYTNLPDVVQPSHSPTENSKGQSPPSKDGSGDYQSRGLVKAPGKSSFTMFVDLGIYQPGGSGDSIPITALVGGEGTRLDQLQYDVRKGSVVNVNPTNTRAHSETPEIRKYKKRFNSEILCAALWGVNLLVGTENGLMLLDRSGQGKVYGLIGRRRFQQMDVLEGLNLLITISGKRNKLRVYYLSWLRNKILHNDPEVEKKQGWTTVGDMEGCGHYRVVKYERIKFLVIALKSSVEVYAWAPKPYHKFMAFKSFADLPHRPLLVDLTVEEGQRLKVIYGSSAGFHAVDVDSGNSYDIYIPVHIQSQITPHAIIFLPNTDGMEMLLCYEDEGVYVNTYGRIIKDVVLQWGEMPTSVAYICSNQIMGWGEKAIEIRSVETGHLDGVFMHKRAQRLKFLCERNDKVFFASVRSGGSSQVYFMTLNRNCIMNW
Chain of Receptor tyrosine-protein kinase erbB-2 (Homo sapiens) (P04626 whole entry): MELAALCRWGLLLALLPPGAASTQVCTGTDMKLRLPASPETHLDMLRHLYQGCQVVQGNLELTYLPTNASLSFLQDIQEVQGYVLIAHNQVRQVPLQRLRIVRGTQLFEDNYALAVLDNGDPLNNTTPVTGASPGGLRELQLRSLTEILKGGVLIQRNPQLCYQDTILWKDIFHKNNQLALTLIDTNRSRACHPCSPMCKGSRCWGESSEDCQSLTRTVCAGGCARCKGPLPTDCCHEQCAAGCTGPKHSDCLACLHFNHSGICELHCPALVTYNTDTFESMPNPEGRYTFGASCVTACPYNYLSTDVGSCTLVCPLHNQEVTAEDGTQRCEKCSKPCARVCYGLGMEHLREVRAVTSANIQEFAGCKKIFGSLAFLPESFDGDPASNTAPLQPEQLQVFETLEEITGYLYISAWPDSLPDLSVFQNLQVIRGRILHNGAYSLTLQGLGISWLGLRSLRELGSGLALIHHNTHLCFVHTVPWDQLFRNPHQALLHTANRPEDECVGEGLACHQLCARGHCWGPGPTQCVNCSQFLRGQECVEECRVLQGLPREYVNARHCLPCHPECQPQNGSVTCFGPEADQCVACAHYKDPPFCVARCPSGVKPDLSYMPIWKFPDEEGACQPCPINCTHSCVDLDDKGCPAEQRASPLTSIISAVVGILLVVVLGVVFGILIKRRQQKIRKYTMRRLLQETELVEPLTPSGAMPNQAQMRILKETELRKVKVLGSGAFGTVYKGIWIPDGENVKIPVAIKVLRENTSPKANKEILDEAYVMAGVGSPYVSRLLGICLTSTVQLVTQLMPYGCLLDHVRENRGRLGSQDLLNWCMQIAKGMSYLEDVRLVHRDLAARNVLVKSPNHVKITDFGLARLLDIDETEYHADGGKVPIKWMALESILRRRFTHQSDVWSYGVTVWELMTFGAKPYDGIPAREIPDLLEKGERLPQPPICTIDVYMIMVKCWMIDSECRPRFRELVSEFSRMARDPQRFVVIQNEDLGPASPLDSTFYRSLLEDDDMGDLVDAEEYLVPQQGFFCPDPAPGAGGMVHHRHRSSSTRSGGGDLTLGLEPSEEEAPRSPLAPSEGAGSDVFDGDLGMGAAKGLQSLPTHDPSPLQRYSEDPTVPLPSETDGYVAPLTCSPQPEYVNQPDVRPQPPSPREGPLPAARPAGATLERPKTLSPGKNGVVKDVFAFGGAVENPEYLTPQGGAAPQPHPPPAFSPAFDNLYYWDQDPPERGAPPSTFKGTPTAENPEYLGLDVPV
Chain of Serine/threonine-protein kinase PLK1 (Homo sapiens) (P53350 whole entry): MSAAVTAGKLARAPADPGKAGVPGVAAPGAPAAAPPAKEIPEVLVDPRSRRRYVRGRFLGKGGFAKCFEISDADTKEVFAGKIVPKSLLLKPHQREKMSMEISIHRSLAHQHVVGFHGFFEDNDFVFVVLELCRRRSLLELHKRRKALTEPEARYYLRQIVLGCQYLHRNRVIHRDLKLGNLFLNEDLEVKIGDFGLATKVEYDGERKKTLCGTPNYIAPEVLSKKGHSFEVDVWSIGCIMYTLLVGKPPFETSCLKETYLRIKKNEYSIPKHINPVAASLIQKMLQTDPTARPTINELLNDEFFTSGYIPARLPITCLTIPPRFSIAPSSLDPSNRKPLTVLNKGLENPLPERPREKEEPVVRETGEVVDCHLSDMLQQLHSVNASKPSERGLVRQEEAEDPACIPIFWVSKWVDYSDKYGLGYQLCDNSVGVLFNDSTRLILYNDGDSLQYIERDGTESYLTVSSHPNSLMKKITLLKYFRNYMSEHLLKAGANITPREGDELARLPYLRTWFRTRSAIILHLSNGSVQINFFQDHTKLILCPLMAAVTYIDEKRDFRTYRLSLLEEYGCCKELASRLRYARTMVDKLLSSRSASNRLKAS
Chain of Mast/stem cell growth factor receptor Kit (Homo sapiens), P10721 [D816H] (P10721 whole entry D816H): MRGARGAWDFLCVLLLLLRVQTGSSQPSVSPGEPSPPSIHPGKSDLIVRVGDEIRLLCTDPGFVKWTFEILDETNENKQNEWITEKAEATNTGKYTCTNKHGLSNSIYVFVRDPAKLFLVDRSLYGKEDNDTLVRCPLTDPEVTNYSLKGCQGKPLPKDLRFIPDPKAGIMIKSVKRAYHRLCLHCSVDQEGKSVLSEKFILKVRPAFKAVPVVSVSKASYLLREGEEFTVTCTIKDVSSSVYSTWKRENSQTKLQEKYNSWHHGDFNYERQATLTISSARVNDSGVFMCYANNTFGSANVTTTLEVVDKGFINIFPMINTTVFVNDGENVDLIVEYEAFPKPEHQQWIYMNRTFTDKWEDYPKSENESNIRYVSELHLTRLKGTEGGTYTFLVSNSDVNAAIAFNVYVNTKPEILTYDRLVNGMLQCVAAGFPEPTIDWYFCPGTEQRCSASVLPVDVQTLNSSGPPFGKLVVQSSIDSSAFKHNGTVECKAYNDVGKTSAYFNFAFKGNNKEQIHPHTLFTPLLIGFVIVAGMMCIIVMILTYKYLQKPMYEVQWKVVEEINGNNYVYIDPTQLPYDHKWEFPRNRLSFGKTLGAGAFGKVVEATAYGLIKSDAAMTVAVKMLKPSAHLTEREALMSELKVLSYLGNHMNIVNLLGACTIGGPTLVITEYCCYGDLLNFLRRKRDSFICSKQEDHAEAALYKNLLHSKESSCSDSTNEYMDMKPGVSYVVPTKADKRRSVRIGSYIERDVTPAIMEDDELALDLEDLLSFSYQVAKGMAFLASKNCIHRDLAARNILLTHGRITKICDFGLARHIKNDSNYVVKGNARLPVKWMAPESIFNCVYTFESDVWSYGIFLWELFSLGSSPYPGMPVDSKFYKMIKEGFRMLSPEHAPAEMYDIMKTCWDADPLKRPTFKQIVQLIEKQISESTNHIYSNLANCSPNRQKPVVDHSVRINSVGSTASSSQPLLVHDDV
Chain of Calcium/calmodulin-dependent protein kinase type 1G (Homo sapiens) (Q96NX5 whole entry): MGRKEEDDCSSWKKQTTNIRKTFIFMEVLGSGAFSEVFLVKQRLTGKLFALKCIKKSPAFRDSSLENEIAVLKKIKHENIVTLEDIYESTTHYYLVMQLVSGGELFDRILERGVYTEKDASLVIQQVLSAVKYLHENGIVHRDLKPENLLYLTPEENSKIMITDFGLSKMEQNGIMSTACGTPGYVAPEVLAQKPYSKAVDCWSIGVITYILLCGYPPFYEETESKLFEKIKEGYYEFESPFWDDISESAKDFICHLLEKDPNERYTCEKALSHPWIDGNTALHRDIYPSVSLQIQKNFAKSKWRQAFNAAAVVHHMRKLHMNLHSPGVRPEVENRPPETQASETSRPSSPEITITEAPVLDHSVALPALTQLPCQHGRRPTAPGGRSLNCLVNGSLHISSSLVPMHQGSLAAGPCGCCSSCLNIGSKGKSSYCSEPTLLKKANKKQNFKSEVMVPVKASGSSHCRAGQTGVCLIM
Chain of Interleukin-1 receptor-associated kinase 4 (Homo sapiens) (Q9NWZ3 whole entry): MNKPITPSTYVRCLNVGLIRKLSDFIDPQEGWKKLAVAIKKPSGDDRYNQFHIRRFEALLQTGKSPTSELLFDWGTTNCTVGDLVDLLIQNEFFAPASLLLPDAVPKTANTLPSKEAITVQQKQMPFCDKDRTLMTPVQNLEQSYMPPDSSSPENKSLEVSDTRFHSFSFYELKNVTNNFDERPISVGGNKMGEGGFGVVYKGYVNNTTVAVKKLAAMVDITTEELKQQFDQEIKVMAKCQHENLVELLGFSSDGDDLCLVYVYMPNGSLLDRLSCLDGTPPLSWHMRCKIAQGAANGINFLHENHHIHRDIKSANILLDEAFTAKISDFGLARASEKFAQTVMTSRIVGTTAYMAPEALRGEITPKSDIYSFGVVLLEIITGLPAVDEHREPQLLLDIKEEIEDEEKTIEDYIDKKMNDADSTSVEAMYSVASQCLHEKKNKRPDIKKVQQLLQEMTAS

Cn1nc(C(F)(F)F)cc1-c1cnc(N2CCc3cc(S(=O)(=O)Nc4c(F)cc(Cl)cc4F)cc(N4CCCC4=O)c32)nc1 [TP-020]
inactive: residual activity [1] 90% | residual activity [2] 74% | residual activity [3] 100% | residual activity [4] 79% | residual activity [5] 96% | residual activity [6] 94% | residual activity [7] 94% | residual activity [8] 89% | residual activity [9] 92% | residual activity [10] 100% | residual activity [11] 77% | residual activity [12] 93% | residual activity [13] 85% | residual activity [14] 90% | residual activity [15] 94% | residual activity [16] 94% | residual activity [17] 100% | residual activity [18] 99% | residual activity [19] 93% | residual activity [20] 81% | residual activity [21] 79% | residual activity [22] 90% | residual activity [23] 93% | residual activity [24] 98% | residual activity [25] 100% | residual activity [26] 100% | residual activity [27] 100% | residual activity [28] 99% | residual activity [29] 100% | inhibition [30] 18.5% | residual activity [31] 100% | residual activity [32] 85% | residual activity [33] 100% | residual activity [34] 100% | residual activity [35] 100% | residual activity [36] 89% | residual activity [37] 85% | residual activity [38] 96% | residual activity [39] 96% | residual activity [40] 93% | residual activity [41] 94% | residual activity [42] 99% | residual activity [43] 100% | residual activity [44] 82% | residual activity [45] 95%

Nc1cnc(N2CCc3cc(S(=O)(=O)Nc4c(F)cc(Cl)cc4F)cc(N4CCCC4=O)c32)nc1
inactive: residual activity [1] 89% | residual activity [2] 100% | residual activity [3] 100% | residual activity [4] 100% | residual activity [5] 100% | residual activity [6] 89% | residual activity [7] 100% | residual activity [8] 100% | residual activity [9] 88% | residual activity [10] 96% | residual activity [11] 100% | residual activity [12] 99% | residual activity [13] 100% | residual activity [14] 96% | residual activity [15] 60% | residual activity [16] 90% | residual activity [17] 100% | residual activity [18] 78% | residual activity [19] 100% | residual activity [20] 100% | residual activity [21] 97% | residual activity [22] 80% | residual activity [23] 100% | residual activity [24] 97% | residual activity [25] 100% | residual activity [26] 100% | residual activity [27] 100% | residual activity [28] 100% | residual activity [29] 83% | inhibition [30] 0.99% | residual activity [31] 99% | residual activity [32] 100% | residual activity [33] 92% | residual activity [34] 97% | residual activity [35] 100% | residual activity [36] 100% | residual activity [37] 100% | residual activity [38] 93% | residual activity [39] 100% | residual activity [40] 70% | residual activity [41] 100% | residual activity [42] 100% | residual activity [43] 88% | residual activity [44] 100% | residual activity [45] 100%
